Read-outs that look alike come from different tables or passages of the source.
Assays:
[1] = target: SARS-CoV-2 M^pro (3CL protease) (Severe acute respiratory syndrome coronavirus 2 (2019-nCoV) (SARS-CoV-2), UniProt P0DTD1); format: biochemical; settings: read-out: SARS-CoV-2M^pro inhibition IC50
SARS-CoV-2 = assay: Anti-viral in vitro PRNT assay in Vero E6 cells; format: cell-based; settings: Vero E6 cells, 1000 pfu, 3 days, plaque reduction; for EC50: read-out: anti-SARS-CoV2 (PRNT) in Vero E6 EC50
[2] = format: in vitro ADME, Human; settings: extraction ratio; for Liver Microsomal Stability (ER) Human, at 0.1 uM: compound at 0.1 uM, human liver microsomes; for Liver Microsomal Stability (ER) Human: compound at 1 uM, human liver microsomes 0.5 mg/mL
[3] = format: in vitro ADME; settings: extraction ratio, compound at 1 uM; for Liver Microsomal Stability (ER) SD rat: SD rat liver microsomes 0.5 mg/mL; for Liver Microsomal Stability (ER) Beagle dog: beagle dog liver microsomes 0.5 mg/mL; for Liver Microsomal Stability (ER) Monkey: monkey liver microsomes 0.5 mg/mL; for Liver Microsomal Stability (ER) Mouse: mouse liver microsomes 0.5 mg/mL
[4] = mouse oral PK, female Balb/c, 40 mg/kg single dose; for AUC0-t / Cmax / Tmax / t1/2: plasma
Experimental: (§1) Pharmacokinetics of test compounds was evaluated following an oral administration of a single dose (at 40 mg/kg) to female Balb/c mice.
(§2) Procedure: Test compounds were administered to Balb/c mice (n=3 per sex per time point) by a single oral gavage. The target dose level for oral administration was 40 mg/kg. Blood samples were collected at pre-dose, and at 0.083, 0.25, 0.50, 1, 2, 4, 6, 8, and 12 hours post-dose. Concentrations of test compound were determined by an LC-MS/MS. Non-compartmental Pharmacokinetic parameters of test compounds were analyzed using Phoenix WinNonlin 8.3.
(§3) Animal Dosing: All animals were fasted overnight through approximately 4 hours post-dose. Tap water was provided to mice ad Libitum. The mice were dosed orally at 10.0 ml/kg. The formulation volume of the test compound administered to each animal was calculated based on the body weight measured on the day of dosing.
(§4) Sample Collection and Analysis: Approximately 0.20 mL of blood was collected via orbital sinus vein puncture into EDTA-K2 tubes. Plasma samples were harvested by centrifugation and stored at −80° C. until analysis. The analytical method for test compound involved protein precipitation by adding acetonitrile containing 1% FA and internal standard (A-1-a synthesized in house or Tolbutamide purchased from Sigma), and final analysis by LC-MS/MS. A standard curve was prepared using mouse plasma for the test compound. The calibration curve was linear over a concentration range of 1.0 to 1000 ng/mL.
(§5) Pharmacokinetic and Statistic Analysis: The reported plasma concentrations of test compounds were used to determine pharmacokinetic parameters, using a non-compartmental model for data analysis (Phoenix WinNonlin 8.3). The common pharmacokinetic parameters were calculated, whenever possible, from the plasma concentration-versus-time data. Nominal doses and sampling times were used, except where deviations were noted. […] BQL after Tmax would not participate in calculation of PK parameters.

in vivo [5] = settings: female, Balb/c, mouse, po, 40 mg/kg
Experimental: as §1, §2, §3, §4, §5

in vivo [6] = settings: female, beagle, dog, po, 40 mg/kg
Experimental: Pharmacokinetics of test compounds was evaluated following an oral administration of a single dose (at 40 mg/kg) to female Beagle dogs.
Procedure: Test compounds were orally administered to beagle dogs (single dose). The target dose level for oral administration was 40 mg/kg. Blood samples were collected at pre-dose, and at 0.083, 0.25, 0.50, 1, 2, 4, 6, 8, and 24 hours post-dose. Concentrations of test compound were determined by an LC-MS/MS. Non-compartmental Pharmacokinetic parameters of test compounds were analyzed using Phoenix WinNonlin 8.3.
Animal Dosing: All animals were fasted ˜17-19 h prior to dosing and fed approximately 4 hours after dosing. […] The dogs were dosed at 10.0 ml/kg. The formulation volume of the test compound administered to each animal was calculated based on the body weight measured on the day of dosing.
Sample Collection and Analysis: Approximately 1 mL of blood was collected by jugular vein puncture into tubes containing EDTA-K2 anticoagulant. Plasma samples were harvested by centrifugation (2000 g for 10 minutes at 4° C. within 2 hours after collection) and stored at −80° C. until analysis. The analytical method for test compound involved protein precipitation by adding acetonitrile containing 1% FA and internal standard (A-1-a synthesized in house or Tolbutamide purchased from Sigma), and final analysis by LC-MS/MS. A standard curve was prepared using dog plasma for the test article. The calibration curve was linear over a concentration range of 1.0 to 1000 ng/mL.
as §5

SARS-CoV-2 Omicron [7] = assay: FRNT assay in Vero E6 cells; format: cell-based; settings: Severe acute respiratory syndrome coronavirus 2, Vero C1008, 24 h
SARS-CoV-2 Omicron [8] = assay: FRNT assay in A549-hACE2 cells; format: cell-based; settings: Severe acute respiratory syndrome coronavirus 2, 24 h
SARS-CoV-2 Omicron [9] = assay: Virus release assay using EpiAirway; format: cell-based; settings: Severe acute respiratory syndrome coronavirus 2
[10] = wild type Mpro 17 nM, substrate 40 uM
[11] = Severe acute respiratory syndrome coronavirus 2, Vero C1008, 72 h

## CC(C)(C)[C@H](NC(=O)C(F)(F)F)C(=O)N1C[C@H]2[C@@H]([C@H]1C(=O)N[C@H](C=O)C[C@@H]1CCNC1=O)C2(C)C [Compound D-1-f]
[1]; [10]
  IC50: 1.08 nM
SARS-CoV-2
  EC50: 7590 nM
[2]
  Liver Microsomal Stability (ER) Human, at 0.1 uM: 0.22(0.1 uM)*
  Liver Microsomal Stability (ER) Human: 0.093,
[3]
  Liver Microsomal Stability (ER) SD rat: −0.02
  Liver Microsomal Stability (ER) Beagle dog: 0.01
  Liver Microsomal Stability (ER) Monkey: 0.13
  Liver Microsomal Stability (ER) Mouse: −0.02
[4]
  AUC0-t: 1402 ng·h/mL
  Cmax: 839 ng/mL
  Tmax: 1 h
  t1/2: 1.37 h

## CC(C)C[C@H](CC(=O)[C@@H](NC(=O)OCc1ccccc1)[C@@H](C)OC(C)(C)C)C(=O)N[C@H](C=O)C[C@@H]1CCNC1=O [Compound C-1-b]
[1]; [10]
  IC50: 1.3 nM
SARS-CoV-2
  EC50: 1020 nM
[2]
  Liver Microsomal Stability (ER) Human: 0.66
[3]
  Liver Microsomal Stability (ER) SD rat: 0.23
  Liver Microsomal Stability (ER) Beagle dog: 0.48
  Liver Microsomal Stability (ER) Monkey: 0.51
  Liver Microsomal Stability (ER) Mouse: 0.45
[4]
  F % (bioavailability): 2.9%
  AUC0-t: 128.4 ng·h/mL
  Cmax: 46.1 ng/mL
  Tmax: 2 h
  t1/2: 0.704 h

## Cc1cccc2[nH]c(C(=O)N[C@@H](CC(C)C)C(=O)N[C@H](C=O)C[C@@H]3CCNC3=O)cc12 [Compound A-4-a, 4-methyl-N—((S)-4-methyl-1-oxo-1-(((S)-1-oxo-3-((S)-2-oxopyrrolidin-3-yl)propan-2-yl)amino)pentan-2-yl)-1H-indole-2-carboxamide]
[1]
  IC50: 2.39 nM
SARS-CoV-2; [11]
  EC50: 1130 nM
[2]
  Liver Microsomal Stability (ER) Human: 0.21
[3]
  Liver Microsomal Stability (ER) SD rat: 0.06
  Liver Microsomal Stability (ER) Beagle dog: 0.22
  Liver Microsomal Stability (ER) Monkey: 0.098
  Liver Microsomal Stability (ER) Mouse: 0.13
In vivo [5]
  half-life: 1 h

## CC(C)(C)[C@H](NC(=O)C(F)(F)F)C(=O)N1C[C@H]2[C@@H]([C@H]1C(=O)N[C@H](C#N)C[C@@H]1CCCNC1=O)C2(C)C [Compound D-3-a]
[1]; [10]
  IC50: 5.83 nM
SARS-CoV-2
  EC50: 1270 nM
[2]
  Liver Microsomal Stability (ER) Human: 0.38
[3]
  Liver Microsomal Stability (ER) SD rat: 0.09
  Liver Microsomal Stability (ER) Beagle dog: 0.16
  Liver Microsomal Stability (ER) Mouse: 0.66
[4]
  AUC0-t: 5590 ng·h/mL
  Cmax: 7070 ng/mL
  Tmax: 0.25 h
  t1/2: 0.706 h

## CC(C)C[C@H](NC(=O)C1CC1)C(=O)N1C[C@H]2[C@@H]([C@H]1C(=O)N[C@H](C#N)C[C@@H]1CCNC1=O)C2(C)C [Compound H-1-f]
[1]; [10]
  IC50: 28.6 nM
SARS-CoV-2
  anti-SARS-CoV2 (PRNT) in Vero E6 EC50 (μM): Inactive
[2]
  Liver Microsomal Stability (ER) Human: 0.03
[3]
  Liver Microsomal Stability (ER) SD rat: 0.04
  Liver Microsomal Stability (ER) Beagle dog: 0.01
  Liver Microsomal Stability (ER) Mouse: 0.27
[4]
  AUC0-t: 72.0 ng·h/mL
  Cmax: 32.1 ng/mL
  Tmax: 1.0 h
  t1/2: 1.43 h

## CC(C)C[C@H](NC(=O)c1cc2c(F)cccc2[nH]1)C(=O)N[C@@H](C[C@@H]1CCNC1=O)C(=O)CO [Compound A-3-e, (2S)-2-[(4-fluoro-1H-indol-2-yl)formamido]-N-[(2S)-4-hydroxy-3-oxo-1-[(3S)-2-oxopyrrolidin-3-yl]butan-2-yl]-4-methylpentanamide]
[1]
  IC50: 5.11 nM
[2]
  Liver Microsomal Stability (ER) Human: 0.11
[3]
  Liver Microsomal Stability (ER) SD rat: 0.17
  Liver Microsomal Stability (ER) Beagle dog: 0.05
  Liver Microsomal Stability (ER) Mouse: 0.23
In vivo [5]
  AUC0-t: 261 ng·h/mL
  Cmax: 131 ng/mL
  Tmax: 0.25 h
  half-life: 1.25 h

## Cc1cccc2[nH]c(C(=O)N[C@@H](CC(C)C)C(=O)N[C@@H](C[C@@H]3CCNC3=O)C(=O)CO)cc12 [Compound A-4-d]
[1]; [10]
  IC50: 4.13 nM
SARS-CoV-2
  EC50: 2060 nM
[2]
  Liver Microsomal Stability (ER) Human: 0.18
[3]
  Liver Microsomal Stability (ER) SD rat: 0.19
  Liver Microsomal Stability (ER) Beagle dog: 0.08
  Liver Microsomal Stability (ER) Mouse: 0.44
[4]
  AUC0-t: 120 ng·h/mL
  Cmax: 52 ng/mL
  Tmax: 4 h
  t1/2: 2.14 h

## CC(C)C[C@H](NC(=O)c1cc2ccccc2[nH]1)C(=O)N[C@H](C=O)C[C@@H]1CCNC1=O [Compound A-1-c, N—((S)-4-methyl-1-oxo-1-(((S)-1-oxo-3-((S)-2-oxopyrrolidin-3-yl)propan-2-yl)amino)pentan-2-yl)-1H-indole-2-carboxamide]
SARS-CoV-2; [11]
  EC50: 300 nM
[2]
  Liver Microsomal Stability (ER) Human, at 0.1 uM: 0.45(0.1 uM)*
  Liver Microsomal Stability (ER) Human: 0.12,
[3]
  Liver Microsomal Stability (ER) SD rat: 0.05
  Liver Microsomal Stability (ER) Beagle dog: 0.09
  Liver Microsomal Stability (ER) Monkey: 0.14
  Liver Microsomal Stability (ER) Mouse: 0.04
In vivo [5]
  AUC0-t: 2170 ng·h/mL
  Cmax: 734 ng/mL
  Tmax: 3 h
  bioavailability: 8%
  half-life: 1.07 h
In vivo [6]
  AUC0-t: 36700 ng·h/mL
  Cmax: 13800 ng/mL
  Tmax: 0.833 h
  bioavailability: 31%
  half-life: 4.84 h

## CC(C)C[C@H](NC(=O)c1cc2c(F)cccc2[nH]1)C(=O)N[C@H](C#N)C[C@@H]1CCNC1=O [Compound A-3-a, (2S)—N-[(1S)-1-cyano-2-[(3S)-2-oxopyrrolidin-3-yl]ethyl]-2-[(4-fluoro-1H-indol-2-yl)-formamido]-4-methylpentanamide]
SARS-CoV-2; [11]
  EC50: 5180 nM
[2]
  Liver Microsomal Stability (ER) Human: 0.02
[3]
  Liver Microsomal Stability (ER) SD rat: 0.21
  Liver Microsomal Stability (ER) Beagle dog: 0.03
  Liver Microsomal Stability (ER) Monkey: 0.27
  Liver Microsomal Stability (ER) Mouse: 0.07
In vivo [5]
  AUC0-t: 15500 ng·h/mL
  Cmax: 8050 ng/mL
  Tmax: 1 h
  half-life: 0.976 h

## CC(C)C[C@H](NC(=O)c1cc2ccccc2[nH]1)C(=O)N1C[C@H]2[C@@H]([C@H]1C(=O)N[C@H](C=O)C[C@@H]1CCNC1=O)C2(C)C [Compound G-1-a]
[1]; [10]
  IC50: 9.57 nM
SARS-CoV-2
  EC50: 25100 nM
[2]
  Liver Microsomal Stability (ER) Human: 0.28
[3]
  Liver Microsomal Stability (ER) SD rat: 0.16
  Liver Microsomal Stability (ER) Beagle dog: 0.09
  Liver Microsomal Stability (ER) Monkey: 0.33
  Liver Microsomal Stability (ER) Mouse: 0.00
[4]
  AUC0-t: 36.1 ng·h/mL
  Cmax: 13.3 ng/mL
  Tmax: 1 h
  t1/2: 0.92 h

## CC(C)C[C@H](NC(=O)c1cc2ccccc2[nH]1)C(=O)N[C@@H](C[C@@H]1CCNC1=O)C(O)S(=O)(=O)[O-].[Na+] (stereo partly drawn) [Compound A-1-d, sodium (2S)-2-((S)-2-(1H-indole-2-carboxamido)-4-methylpentanamido)-1-hydroxy-3-((S)-2-oxopyrrolidin-3-yl)propane-1-sulfonate]
SARS-CoV-2; [11]
  EC50: 1060 nM
SARS-CoV-2 Omicron [7]
  EC50: 360 nM
  EC90: 410 nM
SARS-CoV-2 Omicron [8]
  EC50: 130 nM
  EC90: 280 nM
SARS-CoV-2 Omicron [9]
  EC50: 12 to 41 nM
  EC90: 12 to 41 nM
[2]
  Liver Microsomal Stability (ER) Human: 0.08
[3]
  Liver Microsomal Stability (ER) SD rat: 0.12
  Liver Microsomal Stability (ER) Beagle dog: 0.04
  Liver Microsomal Stability (ER) Mouse: 0.10
In vivo [5]
  AUC0-t: 2620 ng·h/mL
  Cmax: 1610 ng/mL
  Tmax: 0.5 h
  half-life: 0.893 h
In vivo [6]
  AUC0-t: 95900 ng·h/mL
  Cmax: 27800 ng/mL
  Tmax: 2 h
  bioavailability: > 83%
  half-life: 2.73 h

— patent US11753373B2, “Protease inhibitors as antivirals” (priority 2021, dated 2023)
